Patent US10899852B2, “Benzil monoketals and the use thereof” (Merck Patent GmbH, priority 2015, dated 2021)

Assay: storage test of polymerisable liquid-crystal mixture P-1 with sealant containing photoinitiator, then UV irradiation in PS-VA test cells; RM-1 concentration by HPLC
Conditions: inferred from RM-1 polymerisation after storage 7 d at 80° C.
Protocol: A polymerisable liquid-crystal mixture P-1 consisting of • 1. 99.7% by weight of the nematic liquid-crystal mixture M-1 and • 2. 0.3% by weight of the polymerisable compound RM-1
[drawing 37] is prepared. Three samples of in each case 0.5 g of mixture P-1 are stored together with in each case 1 g of the commercially available sealant Unocol 2094® (APM Technica GmbH, Pürgen-Ummendorf), the latter in each case containing • 1. no photoinitiator • 2. 3.0% by weight of the photoinitiator according to the invention from Example 1 • 3. 3.0% by weight of the commercially available photoinitiator Irgacure651® of the structure shown below in a tightly sealed vial at 80° C. for 7 d with exclusion of air and light. A fourth sample of mixture P-1 is stored under the same conditions without the presence of sealant (blank experiment).
The mixtures are subsequently separated off from the sealant, in each case divided into two parts, introduced into PS-VA test cells and irradiated with a metal halide UV lamp with an intensity of 100 mW/cm^2 at 40° C. for a duration of 60 s or 180 s.
The PS-VA test cells consist of two plane-parallel glass plates having a cell gap of 4 μm, each of which are coated with an ITO electrode and with a polyimide alignment layer on top.
After the irradiation, the concentration of the polymerisable compound RM-1 is determined by HPLC.

Compound	photoinitiator dissolved out of the sealant into the liquid crystal during the storage test
COC(OC)(C(=O)c1ccc(OCC(O)CO)cc1)c1ccc(OCC(O)CO)cc1 (centres unmarked) [Example 1, 1,2-Bis[4-(2,3-dihydroxypropoxy)phenyl]-2,2-dimethoxyethanone]	no photoinitiator according to the invention has been dissolved out of the sealant
COC(OC)(C(=O)c1ccccc1)c1ccccc1 [Irgacure651®]	considerable amounts of photoinitiator have dissolved in the liquid-crystal mixture
